Reference: patent US20260209277A1, “COMPOUNDS FOR RNA STABILISATION AND DELIVERY” (STICHTING VU, priority 2022, published 2026)
No end group written: not given here.

How the values were obtained:
HEK293 cells = test: Confocal microscopy of Cy5-siRNA uptake in HEK cells; assay type: cell-based; conditions: HEK293, Cy5-siRNA 1 μM
Procedure: For that purpose, a 21 nt long siRNA comprised of a 19 bp stem and equipped with the far-red fluorescent label, cyanine 5 (Cy5) to monitor RNA internalization (Cy5-siRNA, FIG. 7a) was employed. Initially, HEK293 cells were incubated with Cy5-siRNA (c=1 μM, 37° C., 1 h) before being imaged by confocal fluorescence microscopy. […] To assess the tunability of this effect, Cy5-siRNA/1^∘∘1 or Cy5-siRNA/2^∘∘2 complexes were also pre-treated with the reducing agent dithiothreitol (DTT) in order to promote complex disassembly.
HEK cells were seeded at a density of 40000 cells per well on an 8 well micro-slide (Ibidi), one day before the experiment. They were cultured in DMEM (Thermofisher Scientific), supplemented with 10% Fetal Calf Serum (FCS, PAN Biotech) and glutamax (Life technologies). Before starting the experiment, the peptides and Cy5-labelled siRNA were incubated at a peptide/siRNA ratio of 2:1 (6 μM-3 μM) for 1 h. In case for dithiothreitol (DTT) supplemented experiments, DTT was added to a concentration of 20 mM. The samples were diluted to a final siRNA concentration of 1 μM in serum free DMEM. Cells were washed 1× to remove FCS, and incubated in the siRNA:peptide solution for 1 hour at 37° C. After incubation, cells were washed with the phenol-red free DMEM with HEPES, and imaged. […]

miR-21 [1] = test: Stabilization Assay of miR-21 in fetal bovine serum; assay type: in vitro ADME; conditions: miR-21 9 μM, peptide 18 μM; for stabilizing effect on miR-21 in increasing FBS: 10 min at 37° C., FBS gradient
Procedure: The rapid degradation of RNA by nucleases in serum is one of the central challenges associated with the therapeutic use of RNA. Applicants were therefore interested whether peptide binding promotes RNA stability in serum. For this purpose, miR-21 was incubated with different concentrations of fetal bovine serum (FBS) at 37° C., followed by phenol/chloroform extraction and PAGE analysis (FIG. 14). […] Both is in line with their reduced affinity for miR-21 (FIGS. 12a and 12b). To investigate the time-dependence of RNA stability, a prolonged incubation of RNA in serum (27.5% FBS) was performed, and the remaining RNA visualized by native PAGE (FIG. 14d). Remarkably, even after 6 hours, miR-21 was still detectable in the presence of peptide 2^∘∘2, while in the absence of the peptide, RNA was fully degraded within 15 minutes in line with afore made observations. These findings highlight the potential of peptide 2^∘∘2 to strongly enhance the stability of dsRNA in serum.
RNA stabilization was investigated by incubation of peptide/RNA complexes with fetal bovine serum (FBS) (Thermo Fischer Scientific). Peptide/RNA complexes were formed as described above after which defined amounts of FBS were added (concentration(RNA)=9 μM, concentration(peptide)=18 μM, total volume 10 μL). For gradient stability assay FBS containing RNA solutions were incubated at 37° C. for 10 min and for time course analysis at room temperature with 27.5% FBS. After incubation, 10 μL of NaOAc (3 M), 1 μL Glycogen (Thermo Fischer Scientific), 1 μL Ribolock (Thermo Fischer Scientific) and ddH2O was added on ice to a total volume of 200 μL.
RNA was extracted twice with freshly prepared solution of phenol/chloroform (5:1, 2 mL). After ethanol precipitation (1 mL) of the aqueous phase RNA pallets were redissolved in 8 μL ddH2O and added 2 μL 6×BB and then loaded into a native PAGE gel and run with previously described conditions.

RNA hairpins (HP 1-5) = test: EMSA with RNA hairpins (HP 1-5); assay type: binding; conditions: HP 1-5 c=1 μM, peptide c=4 μM
Procedure: The binding of 2^∘∘2 to a set of five ds RNA hairpins, composed of different, complementary 19 base pair stems bridged via a fixed 6 nucleotide loop (FIG. 8a).
Electrophoretic mobility shift assays (EMSA's) were performed using a Bio-Rad MiniProtean gel system paired with a direct current (DC) power source (PowerPac™ HC, BioRad). […] For gels monitoring disulfide reduction, peptide/RNA solutions were incubated in increasing concentrations (concentration=6, 60 and 600 μM) of TCEP. After incubation, bound nucleic acid complexes were resolved using 15% and 10% non-denaturing polyacrylamide gels (acrylamide:bis-acrylamide (19:1) in 1×TAE) at 150 V or 120 V in running buffer (1×TAE) at 4° C. for 1.5 hours. For nucleic acid visualization, gels were stained using 2 μL of SYBR™ gold nucleic acid gel dye (Invitrogen) in 20 mL of 1×TAE buffer for 15 minutes at RT before being imaged using a Bio-Rad ChemiDoc.

miR-21 [2] = test: Electrophoretic mobility shift assay (EMSA) with miR-21; assay type: binding; conditions: c(RNA)=3 μM; for dsRNA binding in EMSA (band shift): c(peptide)=6 μM, 15% native PAGE
Excerpt: With the desired peptides in hand, we first assessed their dsRNA-binding potential using an electrophoretic mobility shift assay (EMSA). Making use of non-denaturing conditions, EMSA allows to resolve biomolecular complexes by size and charge character.
WT33 was employed as comparative positive control for peptide binding while the double-stranded microRNA, miR-21, was chosen as a sample dsRNA target for this assay. Comprised of an 18 base pair (bp) duplex, miR-21 can accommodate the binding of two wt33 monomers, similar to siRNA duplexes. Under established EMSA conditions, miR-21 resolves as two bands, a lower band corresponding to both unbound single strands and a higher, more distinct band (ca. 20 bp) corresponding to the miR-21 duplex (FIG. 2a). […] With reference to wt33, the most prominent elevated band (ca. 30 bp) likely corresponds to a 1:1 peptide/dsRNA complex while the upper band may represent a higher order structure. The reduction in ds and ssRNA band intensity is likely a result of these binding events.
Additionally, EMSA experiments were performed where dsRNA was incubated with either peptide 1^∘∘1 or 2^∘∘2 in the presence or absence TCEP. […] Having verified the tuneable, dsRNA-binding abilities of our peptide dimers, their use a cellular siRNA delivery tools was confirmed.
Electrophoretic mobility shift assays (EMSA's) were performed using a Bio-Rad MiniProtean gel system paired with a direct current (DC) power source (PowerPac™ HC, BioRad). Typically, 6 μL solutions containing RNA (concentration=3 μM) and peptide (concentration=6 μM) were incubated for 1 h at RT in a binding buffer (1×TAE and 10% glycerol). For gels monitoring disulfide reduction, peptide/RNA solutions were incubated in increasing concentrations (concentration=6, 60 and 600 μM) of TCEP. After incubation, bound nucleic acid complexes were resolved using 15% and 10% non-denaturing polyacrylamide gels (acrylamide:bis-acrylamide (19:1) in 1×TAE) at 150 V or 120 V in running buffer (1×TAE) at 4° C. for 1.5 hours. […]

miR-21 [3] = test: Isothermal titration calorimetry (ITC); assay type: binding; conditions: for N-value (peptides per miR-21 duplex) / −TΔS (entropic penalty) / Kd: 30° C.; for Kd: 1×PBS
Procedure: To confirm RNA-binding, isothermal titration calorimetry (ITC) was used. […] For wt33 this is in line with applicants' previously reported observations.
Isothermal titration calorimetry (ITC) was conducted using a VP-ITC (MicroCal). Before measurement, annealed miR-21 and peptide samples were dissolved in 1×PBS and degassed using a ThermoVac and heated to 30° C. miR-21 (c=6-15 μM) was then transferred into the sample cell (1.8 mL) and peptides (c=86-305 μM) were transferred into the syringe (300 μL). 37 Injections per measurement were performed at 30° C. (8 μl injection volume, 3.2 s injection time, 180 s spacing, high feedback mode) with an initial delay of 60 s and a stirring speed of 310 rpm. Data were analyzed using the MicroCal LLC ITC software (Origin; OriginLab Corporation), the heat associated with each injection was calculated by integrating the area under the curve for each injection and then normalized to concentration. A ‘single set of identical binding sites’ model was used to fit the binding curves from which thermodynamic binding parameters (ΔG, ΔH, ΔS, N and Kd) were calculated.

miR-21 [4] = test: Thermal denaturation assay (CD, Tm determination) of miR-21/peptide complexes; assay type: binding; conditions: for melting temperature (Tm) of miR-21 co-incubated with peptide: equimolar c=2 μM, ellipticity at λ=267 nm, miR-21 alone 51° C.
Excerpt: A thermal denaturation assay was next used to further characterize the dsRNA binding abilities of our peptides. Typically employed in the study of nucleic acid complexes, thermal denaturation assays make use of the spectral changes resulting from complex unfolding as temperature is increased. Using circular dichroism (CD) spectroscopy as a readout, we measured the changes in ellipticity at λ=267 nm, the wavelength maxima associated with A-form dsRNA. In line with previous measurements, the mid-point of denaturation or melting temperature (Tm) associated with miR-21 is 51° C. (FIG. 2b and FIG. 2c). To assess the stability of peptide-dsRNA complexes, peptides were co-incubated with miR-21 at an equimolar concentration (c=2 μM) and measured analogously. […] Contrastingly, incubation with dimeric peptide 1^∘∘1 leads to a greater increase stabilization (Tm=56° C., FIG. 2b) which was also seen for peptide 2 (Tm=58° C., FIG. 2c). […] CD spectroscopy allows not only the measurement of thermal denaturation profiles but can also be used to compare the structural characteristics of biomolecular complexes. […]
Circular dichroism (CD) spectra were recorded with a Jasco J-1500 spectropolarimeter (Jasco) equipped with a programmable Peltier thermostat in a stoppered quartz cuvette (10 mm; Hellma). […] For each sample, 10 CD spectra were measured between 200 nm and 350 nm with continuous scan mode (1 mdeg sensitivity, 1.0 nm resolution, 1.0 nm bandwidth, 2 s integration time, 100 nm/min scan rate). […]
where θ=observed ellipticity/mdeg, c=DNA or RNA strand concentration/mol/L and l=path length/cm. Melting temperature (Tm) determination was conducted with the same instrumentation and sample preparation, where ellipticity (θ=267 nm) was measured by ramping the temperature from 15-90° C. […] Raw data were normalized as described above, and Tm-values were determined using the CDpal program before being plotted in Prism 5.0 (GraphPad).

Substance: N-terminal disulfide (S-S) homodimer of stapled XβNQKKQAQRKRHKS5NRKS5R (SEQ ID NO 23) [peptide 2^∘∘2]
- cellular uptake of Cy5-siRNA co-incubated with peptide (fluorescence) (HEK293 cells; 37° C., 1 h, versus Cy5-siRNA alone): increase in fluorescence intensity
- cellular uptake of Cy5-siRNA/peptide complex pre-treated with DTT (HEK293 cells; DTT pre-treatment (20 mM)): decrease cellular fluorescence intensities
- time miR-21 still detectable in serum in presence of peptide (miR-21 [1]; 27.5% FBS, room temperature, without peptide fully degraded within 15 minutes): ≥ 6 h
- stabilizing effect on miR-21 in increasing FBS (miR-21 [1]): residual RNA levels at 20% FBS to be comparable to those at 1% FBS in the absence of peptide
- binding to RNA hairpins in EMSA (RNA hairpins (HP 1-5)): showed binding to each hairpin
- EMSA of dsRNA/peptide complex with increasing TCEP (miR-21 [2]; c(ligand)=6 μM, c(TCEP)=6, 60 and 600 μM): partial disassembly or unlocking of the dsRNA-peptide complex
- dsRNA binding in EMSA (band shift) (miR-21 [2]): comparable band is also observed
- N-value (peptides per miR-21 duplex) (miR-21 [3]): 1.89
- −TΔS (entropic penalty) (miR-21 [3]): 5.7 kcal/mol
- Kd (miR-21 [3]): 31.7 nM
- fold higher affinity than wt33 (miR-21 [3]; Kd ratio versus wt33): 10 fold
- melting temperature (Tm) of miR-21 co-incubated with peptide (miR-21 [4]): 60 °C
- ΔTm, lowering of melting temperature of dsRNA complex by TCEP (miR-21 [4]; excess reducing agent, 1 mM TCEP vs no TCEP): 4 °C

Substance: Ac-KKQAQRKRHKLNRKERGHKSPSEQRRSELWHAR (SEQ ID NO 19); 33-amino acid TAV2b RNA-binding peptide without dimerization motif, comparative positive control [wt33, reference compound]
- stabilizing effect on miR-21 in increasing FBS (miR-21 [1]): considerably smaller
- dsRNA binding in EMSA (band shift) (miR-21 [2]): smeared elevated band (ca. 50 bp), corresponding to a 2:1, peptide/dsRNA complex
- N-value (peptides per miR-21 duplex) (miR-21 [3]): 1.91
- −TΔS (entropic penalty) (miR-21 [3]): 9.3 kcal/mol
- Kd (miR-21 [3]): 328 nM
- melting temperature (Tm) of miR-21 co-incubated with peptide (miR-21 [4]): 58 °C
